Assay results reported in patent US20240197729A1, “ALK-5 Inhibitors and Uses Thereof” (Sumitomo Pharma Oncology, Inc., priority 2021, published 2024).
pIC50: −log10 of the molar value. Entries after “also recorded” stand apart in the source; their conditions may differ. Read-outs that look alike come from different tables or passages of the source.

Tests used:
[1] = system: TGF-β1-mediated αSMA expression; experiment: Fibroblast to myofibroblast transformation (FMT) assay; settings: for IC50 / pIC50: Homo sapiens, Fibroblast; for inhibition of TGF-β1-mediated αSMA expression: all three IPF donors; for loss of nuclei: donor IPF03, highest test concentration (10 μM); for Potentially toxic concentration: lowest concentration with >25% loss of nuclei; for modulation of the number of nuclei: donors IPF06 and IPF08
Method: To test the ability of selected compounds to inhibit the TGF-β1-dependent transition of fibroblasts to myofibroblasts in a relevant disease model of IPF, an FMT assay was performed using lung fibroblasts from IPF patients. In this assay, the transition of fibroblasts to myofibroblasts is determined by the expression of the biomarker alpha smooth muscle actin (α-SMA).
Primary human bronchial fibroblasts derived from IPF patients were seeded on day zero and the media was refreshed on day two. On day five, selected compounds or controls were added at an eight-point concentration response curve starting at 10 μM (semi-log dilutions). Each drug concentration condition was evaluated in biological duplicates. […] Seventy-two hours following TGF-beta addition, the cells were fixed with formaldehyde. High content imaging evaluating cell number using the nuclear stain DAPI as well as the expression of a-SMA was performed. The following controls were run alongside the selected compounds: vactosertib and the approved IPF drug nintedanib (at an eight-point, semi-log curve with 10 μM starting concentration). As a negative control 0.1% DMSO was also used, matching the DMSO concentration in treated wells. The following calculations were used to determine cell number as well as percent inhibition (PIN) of alpha SMA expression:
• Segmentation and quantification of αSMA immunoreactivity by an HCA algorithm, with density×area (D×A) output • Data normalization of raw αSMA (D×A) to percentage inhibition (PIN) values, on a plate-to-plate basis
• DAPI fluorescence applied for HCA-based quantification of the number of imaged cells, on a plate-to-plate basis
[formula] • μn is the average numbers of nuclei of the vehicle control (TGF-β1+0.1% DMSO) • Xi is the compound number of nuclei

p-SMAD2 (Ser465/Ser467) = experiment: Longitudinal PK/PD analysis of p-SMAD2 in A549 xenograft mouse model; format: in vivo, mice; settings: for percent p-SMAD2 levels compared to vehicle group: 50 mg/kg per oral gavage, normalized to GAPDH; for time of peak p-SMAD2 suppression post dosing / drug tumor and plasma exposure in vivo: single dose 50 mg/kg per oral gavage; for drug tumor and plasma exposure in vivo: A549 xenograft mice
Method: Accordingly, a longitudinal, twenty-two-hour, one-dose study was performed using Compound 04 and the commercially available ALK5 inhibitor vactosertib in an A549 xenograft mouse model. In this study, p-SMAD2 (Ser465/Ser467) and a housekeeping gene (GAPDH) were measured at ten timepoints from zero (established using vehicle-treated animals) up to twenty-two hours post dose for a single drug dose of fifty milligrams per kilogram per subject (three subjects per dosing group).
For this study, xenografts were prepared and implanted in mice as follows. At five weeks of age, female athymic nude mice (purchased from Charles River) were injected with approximately 2.1 million A549 cells (ATCC, CCL-185). Cells were harvested and resuspended in plain RPMI media (no phenol red added) and Matrigel (Corning 356237) at a one to one ratio, and two hundred-microliters of the cell suspension were injected into the right hind flank of each mouse. Tumors were measured every three days by caliper, and as tumors reached an average of seventy-eighty millimeters cubed, mice were randomized in groups of three subjects. Each of the test compounds (vactosertib, Compound 04) was resuspended in 1-methyl-2-pyrrolidinone (Sigma, 494496) (10%) plus 20% Solutol (Sigma 42966) in water (90%). The drug suspensions were sonicated for fifteen minutes to generate a fine particle suspension before being given to the test subjects. Subjects were dosed (per oral gavage) with the suspension. A vehicle control group with three mice was used to establish the baseline and timepoint zero of phospho-SMAD-2 in the tumor xenograft. The test compounds were administered to the respective subject groups at fifty milligrams per kilogram.
Samples were obtained post administration of test compounds at 30 minutes, one hour, two hours, four hours, six hours, eight hours, twelve hours, sixteen hours and twenty-two hours. Tumors were harvested, snap frozen and stored at negative eighty degrees Celsius until further processing. Plasma was collected from all animals by collecting whole blood via cardiac puncture, followed by centrifugation in tubes containing EDTA (BD, microtainer tubes, 365974). A group of three mice receiving vehicle only served as the zero timepoint for both drug groups. The phospho SMAD-2 levels were determined using the Bio-Plex Pro™ Phospho-Smad2 (Ser465/Ser467) Set (BioRad 171V50019M). The phospho SMAD-2 levels were normalized to GAPDH (MILLIPLEX MAP GAPDH Total Magnetic Bead MAPmate™, Millipore 46-667MAG) levels from each sample. All analytes were analyzed in a multiplex fashion with the Bio-Plex Pro Cell Signaling Reagent Kit (BioRad 171304006M). Frozen tumor samples (fifteen to thirty milligrams) were lysed in 100 μl lysis buffer, processed in a bead mill tube, and centrifuged. The resulting lysate was used at 1:50 dilution for the assay according to the manufacturer's instructions. Bead suspension was analyzed using the Luminex system (MAGPIX).
The study described in Example 8 was expanded to include Compound 01. Accordingly, using the same procedure for preparing test subjects and the ability of compounds tested to suppress TGF-beta signaling over time (as described in Example 8), a longitudinal, twenty-two-hour, one-dose study was performed using Compound 01, and the data were plotted alongside data obtained in Example 8 from Compound 04 and commercially available ALK5 inhibitor vactosertib, which were replotted in accordance with Example 10. For this expansion of the longitudinal study, p-SMAD2 (Ser465/Ser467) and housekeeping gene GAPDH were measured at ten timepoints from zero up to twenty-two hours post a single drug dose of fifty milligrams per kilogram per animal (three animals per group). A vehicle only treatment group of three mice was used to establish the baseline levels of p-SMAD2 in A549 xenograft tumor samples.
As in Example 8, xenografts were prepared and implanted in mice as follows. […]

athymic nude mice = settings: mouse, in vivo; for therapeutic index: female, athymic nude (NCRNU), 5 days; for MTD / tolerability, acute MTD study: po
Method: . Evaluation of the acute and chronic maximum tolerated dose (MTD) for Compound 04 and Compound 01 was carried out by oral gavage administration of each compound to athymic nude mice according to the following procedure.
Five weeks-old female athymic nude mice (NCRNU) were purchased from Taconic Biosciences, Rensselaer NY, and acclimated for one week. Mice were approximately […] when enrolled in the study. All compounds were resuspended in 1-methyl-2-pyrrolidinone (Sigma, 494496) (10% v/v) plus 20% Solutol (Sigma 42966) in water (90% v/v). Mice were randomized according to the baseline weight (Day 1) at the beginning of the acute and chronic MTD studies.
For the acute MTD study, mice were administered three escalating doses of each compound every other day (two animals per group). Mice were dosed by oral gavage with one hundred milligrams per kilogram on day one, five hundred milligrams per kilogram on day three, and one thousand milligrams per kilogram on day five. Body weight was measured every day, and the percent body weight change was calculated.
For the chronic MTD study, three groups, with three mice per group were dosed daily for five consecutive days, at one hundred, three hundred, or one thousand milligrams per kilogram of Compound 04 or Compound 01, and observed for five consecutive days post-dosing during recovery. Body weight was measured, and clinical observations were recorded daily for ten consecutive days. A vehicle only treatment group of three mice was included to evaluate potential toxicity of the vehicle. The percent body weight change for each day was calculated based on Day 1 measurements.

[2] = read-out: Average IC50 (nM), average of donors IPF03, IPF06, IPF08
[3] = read-out: IC50 αSMA, donor IPF03
[4] = read-out: IC50 αSMA, donor IPF06
[5] = read-out: IC50 αSMA, donor IPF08
[6] = read-out: pIC50 αSMA, donor IPF03 (converted)
[7] = read-out: pIC50 αSMA, donor IPF06 (converted)
[8] = read-out: pIC50 αSMA, donor IPF08 (converted)

Row | Structure (SMILES) | IC50 [1, 2] | pIC50 [1, 3] | pIC50 [1, 4] | pIC50 [1, 5] | IC50 [1, 6] | IC50 [1, 7] | IC50 [1, 8] | inhibition of TGF-β1-mediated αSMA expression [1] | Max PIN (%) ([1]; donor IPF03) | loss of nuclei [1] | Max PIN (%) ([1]; donor IPF06) | Max PIN (%) ([1]; donor IPF08) | percent p-SMAD2 levels compared to vehicle group (p-SMAD2 (Ser465/Ser467); 0.5 h post dosing) | percent p-SMAD2 levels compared to vehicle group (p-SMAD2 (Ser465/Ser467); 1 h post dosing) | percent p-SMAD2 levels compared to vehicle group (p-SMAD2 (Ser465/Ser467); 4 h post dosing) | percent p-SMAD2 levels compared to vehicle group (p-SMAD2 (Ser465/Ser467); 6 h post dosing) | percent p-SMAD2 levels compared to vehicle group (p-SMAD2 (Ser465/Ser467); 8 h post dosing) | percent p-SMAD2 levels compared to vehicle group (p-SMAD2 (Ser465/Ser467); 12 h post dosing) | percent p-SMAD2 levels compared to vehicle group (p-SMAD2 (Ser465/Ser467); 16 h post dosing) | percent p-SMAD2 levels compared to vehicle group (p-SMAD2 (Ser465/Ser467); 22 h post dosing) | also measured
1 | Cc1nn(CC(F)(F)F)cc1Nc1cc(Nc2cnnc3c(C)cccc23)ccn1 [Compound 01, N2-[3-methyl-1-(2,2,2-trifluoroethyl)-1H-pyrazol-4-yl]-N4-(8-methylcinnolin-4-yl)pyridine-2,4-diamine] | 83.3 nM | 7.00 | 7.00 | 7.30 | 100 nM | 100 nM | 50.1 nM | full concentration-dependent inhibition | 106% | > 25% | 107% | 101% | 57% | 37% | 30% | 59% | 76% | 89.2% | 82.1% | 86.5% | Potentially toxic concentration ([1]; donor IPF03): 5.0; modulation of the number of nuclei [1]: No modulation of the number of nuclei was observed; percent p-SMAD2 levels compared to vehicle group (p-SMAD2 (Ser465/Ser467); 2 h post dosing): 24%; time of peak p-SMAD2 suppression post dosing (p-SMAD2 (Ser465/Ser467)): 2 h; drug tumor and plasma exposure in vivo (p-SMAD2 (Ser465/Ser467)): longer drug tumor and plasma exposure in vivo; therapeutic index (athymic nude mice): less than 4 ×; MTD (athymic nude mice): less than three hundred; tolerability, acute MTD study (athymic nude mice): well tolerated in mice at one thousand milligrams per kilogram with single dose administration
2 | Clc1cccc2c(Nc3ccnc(Nc4cccc(N5CCOCC5)c4)c3)cnnc12 [Compound 04, N4-(8-chlorocinnolin-4-yl)-N2-[3-(morpholin-4-yl)phenyl]pyridine-2,4-diamine] | 40 nM | 7.40 | 7.30 | 7.52 | 39.8 nM | 50.1 nM | 31.6 nM | full concentration-dependent inhibition | 107% | < 25% | 106% | 100% | 55% | 24% | 14% | 22% | 57% | 95.0% | 81.9% | 91.4% | modulation of the number of nuclei [1]: No modulation of the number of nuclei was observed; time of peak p-SMAD2 suppression post dosing (p-SMAD2 (Ser465/Ser467)): two; drug tumor and plasma exposure in vivo (p-SMAD2 (Ser465/Ser467); 50 mg/kg): longer drug tumor and plasma exposure in vivo than vactosertib; drug tumor and plasma exposure in vivo (p-SMAD2 (Ser465/Ser467); listed as compound 04, 50 mg/kg): longer drug tumor and plasma exposure in vivo; therapeutic index (athymic nude mice): 6 ×; MTD (athymic nude mice): three hundred; tolerability, acute MTD study (athymic nude mice): well tolerated in mice at one thousand milligrams per kilogram with single dose administration
3 | Cc1cccc2c(Nc3ccnc(Nc4ccc(N5CCOCC5)cc4)c3)cnnc12 [Compound 05, N4-(8-methylcinnolin-4-yl)-N2-[4-(morpholin-4-yl)phenyl]pyridine-2,4-diamine] | 50 nM | 7.22 | 7.30 | 7.40 | 63.1 nM | 50.1 nM | 39.8 nM | – | 106% | – | 106% | 101% | – | – | – | – | – | – | – | – | Potentially toxic concentration ([1]; donor IPF03): 5.0
4 | Cc1cccc(-c2[nH]c(CNc3ccccc3F)nc2-c2ccc3ncnn3c2)n1 [Vactosertib, vactosertib, reference compound] | 38.3 nM | 7.30 | 7.40 | 7.60 | 50.1 nM | 39.8 nM | 25.1 nM | – | 105% | – | 104% | 102% | 53% | 14% | 32% | 67% | 65% | 89.1% | 74.6% | 101.1% | percent p-SMAD2 levels compared to vehicle group (p-SMAD2 (Ser465/Ser467); 2 h post dosing): 21%; drug tumor and plasma exposure in vivo (p-SMAD2 (Ser465/Ser467); 50 mg/kg): quickly cleared from the system; also recorded: quickly cleared from the mice
